What was measured:
Assay type in all cases: cell-based, human
hPSCs = test: Hemogenic endothelium differentiation of hPSCs, flow cytometry and immunostaining for CD34/SOX17; conditions: early CHIR treatment; day 5 cultures
Excerpt: Producing hemogenic endothelium (HE) from hPSCs, marked by the expression of typical endothelial marker VE-cadherin, CD31, and CD34, is a vital step towards hematopoietic cell generation. We've previously developed a robust protocol to generate homogenous CD34+CD31+HE from hPSCs via small-molecule activation of Wnt signaling (FIG. 1A-B). Since simultaneous modulation of Wnt and Activin signaling yields aorta-like SOX17+ vessels in AGM that give rise to hematopoietic cells, we speculated that our small molecule-induced CD34+CD31+ cells are also SOX17+, which was confirmed by flow cytometry and immunostaining analysis of SOX17 expression (FIG. 1C-D). […] Importantly, the resulting CD34+SOX17+AGM-like HE didn't express CD235a, markers of primitive hematopoiesis.
19-9-11, 19-9-7, 6-9-9, H1, H9 and H13 were obtained from WiCell and maintained on Matrigel- or iMatrix 511-coated plates in mTeSR plus or mTeSR1 medium according to a previously published method. RUES2 were kindly provided by Dr. Ali H. Brivanlou at the Rockefeller University. […]
Floating hematopoietic cells were gently pipetted and filtered through a 70 or 100 μm strainer sitting on a 50 ml tube. […] The cells were stained with appropriate conjugated antibodies (Table 1) for 25 mins at room temperature in dark, and analyzed in Accuri C6 plus flow cytometer (Beckton Dickinson) after washing once with BSA-containing PBS−/−solution. […]

[1] = system: hPSC-derived hemogenic endothelium; test: Hematopoietic specification of hPSC-derived hemogenic endothelium, flow cytometry for CD45; conditions: for yield of resulting stem cells: day 12, differentiation factor applied at hematopoietic specification stage; for generation of CD45+ hematopoietic cells: screening of chemicals and cytokines, feeder-free conditions, 19-9-11 iPSC-derived HE; for yield and purity of CD45+ hematopoietic cells on retrieval from the differentiation medium: day 15 cultures, SCF and FLT3L withdrawn; for efficiency of generating AGM-like hematopoietic stem cells when used in place of SB431542: Day 4-6 of differentiation
Protocol: While OP9-DLL4 stromal cells have been used to efficiently induce hematopoietic and immune cells from our small-molecule induced HE [32], the undefined nature of feeder cells may lead to inaccurate investigation of signaling pathways during hematopoiesis. Thus, to develop a chemically-defined hematopoietic specification platform, screening of known chemicals and cytokines was performed on our hPSC-derived AGM-like HE under feeder-free conditions (FIG. 2A). […] Wnt-059 and SB-induced hematopoiesis were also applicable to H9 and 6-9-9 hPSCs (FIG. 2E).
19-9-11, 19-9-7, 6-9-9, H1, H9 and H13 were obtained from WiCell and maintained on Matrigel- or iMatrix 511-coated plates in mTeSR plus or mTeSR1 medium according to a previously published method. RUES2 were kindly provided by Dr. Ali H. Brivanlou at the Rockefeller University. The Kolf2 and CT2 data were acquired in Dr. Yang Yang's lab and Dr. Ourania Andrisani's lab at Purdue. H9 7TGFβ Wnt reporter and 19-9-11 ischcat-1 as well as ischcat-2 lines were kindly provided by Dr. Sean Palecek at University of Wisconsin-Madison. To make hematopoietic cells, hPSCs were dissociated with 1 mM EDTA and seeded onto iMatrix 511 or Matrigel-coated 6-, 12- or 24-well plate at a cell density between 10,000 and 80,000 cell/cm^2 in mTeSR plus or mTeSR1 medium with 5 μM Y27632 for 24 hours (day-1). At day 0, cells were treated with 6 μM CHIR99021 (CHIR) in DMEM medium supplemented with 100 ug/ml ascorbic acid (DMEM/Vc), followed by a medium change with LasR basal medium at day 1, day 2 and day 3. For female hPSC lines, 50 ng/mL VEGF was added to the medium from day 2 to day 4. At day 4, medium was replaced by Stemline II medium (Sigma) supplemented 10 μM SB431542. After 2 days, SB431542-containing medium was aspirated and cells were maintained in Stemline II medium with or without 50 ng/mL SCF and FLT3L. At day 9 and every 2 to 3 days afterwards, aspirate half medium and add fresh Stemline II medium with or without SCF/FLT3L until analysis. Other media used to induce hematopoietic cells were illustrated in FIG. 8B.
Floating hematopoietic cells were gently pipetted and filtered through a 70 or 100 μm strainer sitting on a 50 ml tube. The cells were then pelleted by centrifugation and washed once in PBS−/−solution with 1% bovine serum albumin (BSA). The cells were stained with appropriate conjugated antibodies (Table 1) for 25 mins at room temperature in dark, and analyzed in Accuri C6 plus flow cytometer (Beckton Dickinson) after washing once with BSA-containing PBS−/−solution. FlowJo software was used to process collected flow data.

Wnt signaling = test: RT-PCR of day 6 HE samples (WNT3A, AXIN2) and 7TGP Wnt reporter line; conditions: for transcriptional activity of endogenous Wnt signaling: H9 7TGP Wnt reporter line, day 6, eGFP flow cytometry; for expression of WNT3A and AXIN2: RT-PCR, day 6 HE samples
Protocol: Cells cultured on 24-well plate were collected and lysed in 500 μL TRIzol™ reagent (Invitrogen). Total RNA were then prepared with the Direct-zol RNA miniprep kit (Zymo) with in-column DNase treatment following the manufacture's instruction. cDNA was reverse transcribed from 1 μg RNA with ProtoScript First Strand cDNA Synthesis Kit (NEB) and used for RT-PCR with GoTaq Green Master Mix (Promega).

Cc1c[nH]c(-c2cnc(NCCNc3ccc(C#N)cn3)nc2-c2ccc(Cl)cc2Cl)n1 [CHIR99021]
CD34+SOX17+ population obtained (hPSCs): homogenous CD34+SOX17+ population
effect on hematopoiesis induced by SB ([1]; activation of Wnt signaling together with SB): blocked

NC(=O)c1ccc(-c2nc(-c3ccc4c(c3)OCO4)c(-c3ccccn3)[nH]2)cc1 [SB431542]
transcriptional activity of endogenous Wnt signaling (Wnt signaling): low transcriptional activity
expression of WNT3A and AXIN2 (Wnt signaling): low expression
CD45+ hematopoietic cells ([1]; SB treatment day 4 to 6, read on day 12, 19-9-11 iPSCs): more than 40%
yield of resulting stem cells [1]: 40.9%
generation of CD45+ hematopoietic cells [1]: significantly enhanced

Cc1cc(-c2ccc(CC(=O)Nc3ccc(-c4cccnc4)cc3)cc2)ccn1 [Wnt-059]
transcriptional activity of endogenous Wnt signaling (Wnt signaling): low transcriptional activity
expression of WNT3A and AXIN2 (Wnt signaling): low expression
generation of CD45+ hematopoietic cells [1]: significantly induced

heparin
promotion of hematopoietic cell production [1]: work well
yield of resulting stem cells [1]: 20.6%

stem cell factor [SCF]
yield and purity of CD45+ hematopoietic cells on retrieval from the differentiation medium [1]: reduced both the yield and purity

thrombopoietin [TPO]
promotion of hematopoietic cell production [1]: work well
yield of resulting stem cells [1]: 30.4%

B1: IL-16: cytokine that could be used in place of SB431542, lower efficiency (protein, UniProt Q14005 1212-1332, looked up)
Interleukin-16: SAASASAASDVSVESTAEATVCTVTLEKMSAGLGFSLEGGKGSLHGDKPLTINRIFKGAASEQSETVQPGDEILQLGGTAMQGLTRFEAWNIIKALPDGPVTIVIRRKSLQSKETTAAGDS
efficiency of generating AGM-like hematopoietic stem cells when used in place of SB431542 [1]: lower efficiency

B2: colony-stimulating factor 3 (protein, UniProt P09919 31-207, looked up)
Granulocyte …: TPLGPASSLPQSFLLKCLEQVRKIQGDGAALQEKLVSECATYKLCHPEELVLLGHSLGIPWAPLSSCPSQALQLAGCLSQLHSGLFLYQGLLQALEGISPELGPTLDTLQLDVADFATTIWQQMEELGMAPALQPTQGAMPAFASAFQRRAGGVLVASHLQSFLEVSYRVLRHLAQP
efficiency of generating AGM-like hematopoietic stem cells when used in place of SB431542 [1]: lower efficiency

B3: FMS-like tyrosine kinase 3 ligand (protein, UniProt P49771 27-235, looked up)
Fms-related tyrosine kinase 3 …: TQDCSFQHSPISSDFAVKIRELSDYLLQDYPVTVASNLQDEELCGGLWRLVLAQRWMERLKTVAGSKMQGLLERVNTEIHFVTKCAFQPPPSCLRFVQTNISRLLQETSEQLVALKPWITRQNFSRCLELQCQPDSSTLPPPWSPRPLEATAPTAPQPPLLLLLLLPVGLLLLAAAWCLHWQRTRRRTPRPGEQVPPVPSPQDLLLVEH
notes: Recombinant Human Flt3-Ligand, Peprotech #300-19
yield and purity of CD45+ hematopoietic cells on retrieval from the differentiation medium [1]: reduced both the yield and purity

— US20230097226A1, “GENERATING AORTA-GONAD-MESONEPHROS-LIKE HEMATOPOIETIC CELLS FROM HUMAN PLURIPOTENT STEM CELLS UNDER A DEFINED CONDITION” (Purdue Research Foundation, priority 2020, published 2023)
